For one experiment, the system named is HeLa cells. Description: AMPK and ACC phosphorylation in HeLa cells deficient in LKB1. Type of experiment: cell-based. An excerpt: (§1) These assays were described previously, [25].
A further experiment deals with T1, human AMPK α1(1–312) (Homo sapiens, UniProt Q13131).
T1 construct: the constitutively active kinase domain (KD) α1(1–312) in SPA assay; made in house
Briefly: SPA, constitutively active kinase domain. As to conditions: various concentrations. Type of experiment: biochemical. The procedure:
(§2) Before the SPA assay, 200 nmol/l recombinant AMPK protein (α1β1γ1, α2β1γ1, α1β2γ1, α2β2γ1, α1(1–394), α1(1–335), α1(1–312)) was constructed, expressed, purified and fully phosphorylated as described previously. The SPA reactions were performed in 96-well plates in a final volume of 50 µl containing 20 mmol/l Tris-HCl, pH 7.5, 5 mmol/l MgCl2, 1 mmol/l DTT, 2 µmol/l biotin-SAMS, 2 µmol/l ATP and 7.4×10^3 Bq/well [γ-^33P]ATP. The reactions were initiated by the addition of 50 nmol/l recombinant AMPK protein to the reaction solutions, followed by incubation at 30°C for 2 hr. The reactions were then terminated by the addition of 40 µl of stop solution containing 80 µg streptavidin-coated SPA beads per well, 50 mmol/l EDTA and 0.1% Triton X-100 in PBS, pH 7.5, followed by incubation for 1 hr. Finally, 160 µl of suspension solution containing 2.4 mol/l CsCl, 50 mmol/l EDTA and 0.1% Triton X-100 in PBS, pH 7.5, was added to the reaction solution to suspend the SPA beads completely. The SPA signals were measured in a Wallac Microbeta plate counter (PerkinElmer, Waltham, MA, USA) 30 min later.

In experiment [1] the target is T2, Recombinant human protein phosphatase-2Cα (PP2Cα) (Homo sapiens, UniProt P35813).
T2 construct: purchased Abcam (Cambridge, UK)
T2 sequence (P35813 1-382): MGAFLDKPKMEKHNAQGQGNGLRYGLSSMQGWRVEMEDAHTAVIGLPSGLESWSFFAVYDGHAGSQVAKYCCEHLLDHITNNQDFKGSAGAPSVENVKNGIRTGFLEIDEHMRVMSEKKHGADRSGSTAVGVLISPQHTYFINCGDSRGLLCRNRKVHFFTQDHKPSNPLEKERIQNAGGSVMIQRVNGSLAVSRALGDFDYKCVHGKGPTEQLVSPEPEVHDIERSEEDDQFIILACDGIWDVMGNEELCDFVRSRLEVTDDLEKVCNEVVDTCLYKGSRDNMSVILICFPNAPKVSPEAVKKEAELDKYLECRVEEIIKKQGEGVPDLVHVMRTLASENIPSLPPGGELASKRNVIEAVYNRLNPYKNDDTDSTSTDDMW
Description: PP2Cα activity with pNPP as substrate. The format is biochemical. As to conditions: varying concentrations of ZLN024. The procedure: Recombinant human protein phosphatase-2Cα (PP2Cα) was obtained from Abcam (Cambridge, UK). PP2Cα activity was measured using pNPP as a substrate. The activity was measured in a SpectraMAX 340 plate reader at 37°C and […] for 120 sec. The assay was carried out in a 96-well plate in a final volume of 100 µl containing 50 mmol/l Tris-HCl, pH 7.6, 2 mmol/l DTT, 10 mmol/l MnCl2 and 10 mmol/l pNPP; the PP2Cα enzyme concentration was 400nmol/l.

The subject of experiment [2] is L6 myotubes. Description: Fatty acid (palmitate) oxidation in L6 myotubes. Type of experiment: cell-based. The conditions noted are these: 4 hr treatment. The procedure:
The assay was initiated by adding [9,10-^3H(N)]-palmitic acid (PerkinElmer, Waltham, MA, USA) to a final concentration of 250 µmol/l and 5.55×10^4 Bq per well in DMEM. After incubation with the compound for 4 hr in differentiated L6 myotubes, sample from each well was added to charcoal slurry for centrifugation and then the radioactivity was measured.

The test system of the next experiment is rat primary hepatocytes. Briefly: AMPK and ACC phosphorylation in rat primary hepatocytes. Type of experiment: cell-based. The conditions noted are these: 3 hr.
From the text: as §1

The test system of experiment [3] is L6 myotubes. Description: Mitochondrial membrane potential in L6 myotubes. Type of experiment: cell-based. As to conditions: various concentrations, 3 hr, vs DMSO.
From the text: as §1

The target in another experiment is recombinant AMPK α1β1γ1 (Homo sapiens, UniProt Q13131). Briefly: Scintillation proximity assay (SPA), AMPK activation. The format is biochemical. More on the design: made in house. The procedure:
as §2
Background: In a scintillation proximity assay essentially only radioactivity close to the scintillant gives light.

Experiment [4] addresses T3, AMPK α1β1γ1 (Homo sapiens, UniProt P54619+Q13131+Q9Y478). Described as above. The format is biochemical. More on the design: made in house. The protocol: as §2
Target sequence in this assay (Q13131 10-559 limits assumed): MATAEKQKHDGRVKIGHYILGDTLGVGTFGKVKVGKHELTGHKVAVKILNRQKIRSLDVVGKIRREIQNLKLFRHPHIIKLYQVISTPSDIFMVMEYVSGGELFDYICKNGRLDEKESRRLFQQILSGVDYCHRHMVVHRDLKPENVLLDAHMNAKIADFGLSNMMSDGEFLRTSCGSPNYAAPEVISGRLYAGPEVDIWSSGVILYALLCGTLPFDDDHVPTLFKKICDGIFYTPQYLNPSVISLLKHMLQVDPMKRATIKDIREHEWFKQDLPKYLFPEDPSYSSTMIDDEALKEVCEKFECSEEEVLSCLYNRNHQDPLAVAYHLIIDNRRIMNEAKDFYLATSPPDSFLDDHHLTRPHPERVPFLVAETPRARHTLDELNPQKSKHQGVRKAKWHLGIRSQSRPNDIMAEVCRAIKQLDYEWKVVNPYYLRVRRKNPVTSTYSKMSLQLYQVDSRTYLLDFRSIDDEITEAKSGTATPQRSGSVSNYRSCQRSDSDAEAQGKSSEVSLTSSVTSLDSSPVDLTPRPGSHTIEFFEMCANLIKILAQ
Target sequence in this assay (Q9Y478 whole entry partner): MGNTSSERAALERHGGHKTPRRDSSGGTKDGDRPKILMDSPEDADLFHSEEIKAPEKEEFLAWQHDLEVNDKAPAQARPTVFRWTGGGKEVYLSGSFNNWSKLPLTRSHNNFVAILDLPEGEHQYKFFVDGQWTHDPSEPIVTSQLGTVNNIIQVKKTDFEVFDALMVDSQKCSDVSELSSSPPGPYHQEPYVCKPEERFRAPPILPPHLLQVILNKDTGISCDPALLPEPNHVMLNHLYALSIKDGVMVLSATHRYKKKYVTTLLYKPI
Target sequence in this assay (P54619 whole entry partner): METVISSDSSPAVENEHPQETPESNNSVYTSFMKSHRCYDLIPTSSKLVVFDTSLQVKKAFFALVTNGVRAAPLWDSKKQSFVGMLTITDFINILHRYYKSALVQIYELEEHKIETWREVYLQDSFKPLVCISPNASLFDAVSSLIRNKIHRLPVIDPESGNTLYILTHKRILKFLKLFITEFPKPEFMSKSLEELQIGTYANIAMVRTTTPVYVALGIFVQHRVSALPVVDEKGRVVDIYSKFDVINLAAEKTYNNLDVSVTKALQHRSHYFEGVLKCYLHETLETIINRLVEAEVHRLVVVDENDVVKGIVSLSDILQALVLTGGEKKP
For experiment [5], the system named is L6 myotubes. Description: AMPK and ACC phosphorylation (Western blot) in L6 myotubes. The format is cell-based.
From the text: as §1

The target of the next experiment is AMPK α2β1γ1 (Homo sapiens, UniProt P54619+P54646+Q9Y478). Description: PP2Cα-catalyzed dephosphorylation of AMPK Thr-172. As to conditions: 5 µmol/l ZLN024. Type of experiment: biochemical. The procedure:
(§3) The dephosphorylation of AMPK was performed as described previously, [24].

Experiment [6] addresses T3, AMPK α1β1γ1. Briefly: PP2Cα-catalyzed dephosphorylation of AMPK Thr-172. The format is biochemical. As to conditions: 5 µmol/l ZLN024. The procedure:
as §3
Target sequence in this assay (Q13131 10-559 limits assumed): as the sequence (Q13131 10-559 limits assumed) above
Target sequence in this assay (Q9Y478 whole entry): as the sequence (Q9Y478 whole entry partner) above
Target sequence in this assay (P54619 whole entry): as the sequence (P54619 whole entry partner) above

Structures are written as SMILES. Bounds are passed on as bounds.

T1 sequence (Q13131 10-321): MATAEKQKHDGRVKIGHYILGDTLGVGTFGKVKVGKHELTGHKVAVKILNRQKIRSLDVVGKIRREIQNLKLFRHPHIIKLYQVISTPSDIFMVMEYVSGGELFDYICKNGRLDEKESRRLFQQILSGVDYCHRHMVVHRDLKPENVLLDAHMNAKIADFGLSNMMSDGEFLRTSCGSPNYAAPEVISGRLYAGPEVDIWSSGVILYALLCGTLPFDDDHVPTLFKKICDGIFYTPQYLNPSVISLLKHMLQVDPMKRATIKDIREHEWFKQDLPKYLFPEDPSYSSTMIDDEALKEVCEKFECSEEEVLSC
Sequence of recombinant AMPK α1β1γ1 (Q13131 10-559 limits assumed): as the sequence (Q13131 10-559 limits assumed) above
Sequence of recombinant AMPK α1β1γ1 (Q9Y478 whole entry partner): as the sequence (Q9Y478 whole entry partner) above
Sequence of recombinant AMPK α1β1γ1 (P54619 whole entry partner): as the sequence (P54619 whole entry partner) above
Sequence of AMPK α2β1γ1 (P54646 whole entry): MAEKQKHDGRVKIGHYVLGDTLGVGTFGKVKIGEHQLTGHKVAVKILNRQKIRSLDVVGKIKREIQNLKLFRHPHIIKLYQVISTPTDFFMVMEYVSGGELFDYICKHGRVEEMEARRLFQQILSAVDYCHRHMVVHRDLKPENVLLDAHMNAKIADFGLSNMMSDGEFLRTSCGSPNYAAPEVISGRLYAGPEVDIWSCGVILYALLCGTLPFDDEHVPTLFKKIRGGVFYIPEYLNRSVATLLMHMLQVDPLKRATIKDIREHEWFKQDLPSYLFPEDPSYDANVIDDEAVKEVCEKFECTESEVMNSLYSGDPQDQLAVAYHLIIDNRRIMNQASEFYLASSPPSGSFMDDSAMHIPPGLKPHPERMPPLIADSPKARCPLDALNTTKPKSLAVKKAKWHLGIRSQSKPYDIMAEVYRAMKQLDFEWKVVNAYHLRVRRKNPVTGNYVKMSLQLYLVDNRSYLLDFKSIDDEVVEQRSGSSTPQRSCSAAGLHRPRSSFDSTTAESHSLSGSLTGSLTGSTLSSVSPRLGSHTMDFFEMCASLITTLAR
Sequence of AMPK α2β1γ1 (Q9Y478 whole entry): as the sequence (Q9Y478 whole entry partner) above
Sequence of AMPK α2β1γ1 (P54619 whole entry): as the sequence (P54619 whole entry partner) above

A word on the EC50: it is the midpoint of the concentration-response curve. Low readings indicate an effect from little substance, high ones a need for much substance. For the molecule `Cc1ccc(OCCSc2ncccn2)c(Br)c1` [ZLN024], the “phosphorylation of AMPK and ACC” value in the experiment on HeLa cells (3 hr, concentration-dependent) is recorded as “stimulated”. For the same molecule, in the experiment on HeLa cells (ZLN024 20 µmol/l), the “time to peak of AMPK and ACC phosphorylation” value is on record as ≤ 30 min; the “time to start of increase of AMPK and ACC phosphorylation” value was ≤ 15 min. Also, the “effect on activity of constitutively active kinase domain α1(1–312)” value on human AMPK α1(1–312) was “did not induce significant changes”. Besides, the “effect on PP2Cα activity” value in experiment [1] is listed as “no significant inhibition”. In addition, the “stimulation of palmitate oxidation” value in the experiment with L6 myotubes [2] was found to be 40%. In addition, in the experiment with rat primary hepatocytes, the “phosphorylation of ACC” value is listed as “obviously increased” and the “phosphorylation of AMPK” value is “slightly activated”. For the same molecule, the “mitochondrial membrane potential (MMP)” value with L6 myotubes [3] was “not affected”. Moreover, the “activation of α1β1γ1 activity” value at recombinant AMPK α1β1γ1 was determined as 1.5 fold. Further, a half-maximal response on AMPK α1β1γ1 [4] (EC50) required 420 nM. Also, the “phosphorylation of AMPK and ACC” value with L6 myotubes [5] (3 hr incubation, concentration-dependent) is on record as “stimulated”. In the experiment with L6 myotubes [5] (ZLN024 20 µmol/l), the “time to maximal effect on AMPK and ACC phosphorylation” value is given as ≤ 30 min; the “time to start of increase of AMPK and ACC phosphorylation” value was ≤ 15 min. The “protection of AMPK α2β1γ1 against dephosphorylation by PP2Cα” value on AMPK α2β1γ1 was “provided protection against dephosphorylation”. For the same molecule, the “protection of AMPK α1β1γ1 against dephosphorylation by PP2Cα” value on AMPK α1β1γ1 [6] is recorded as “provided protection against dephosphorylation”.

The values are drawn from paper PMC3748009, “Novel Small-Molecule AMP-Activated Protein Kinase Allosteric Activator with Beneficial Effects in db/db Mice” (PLoS ONE, 2013).
